From ChEMBL document CHEMBL2384947, “27-Nor-Δ(4)-dafachronic acid is a synthetic ligand of Caenorhabditis elegans DAF-12 receptor” (Bioorg Med Chem Lett, 2013) come the findings set out here.

One assay has as its system HEK293. Briefly: (§1) Transactivation of Caenorhabditis elegans DAF-12 receptor LBD transfected in HEK293 cells co-expressing Gal4-DBD after 20 hrs by luciferase reporter gene assay. It counts as cell-based. Background: Reporter assays use an easily measured gene product as a stand-in for the process of interest.
Assay [1] can be described thus: as §1. As to conditions: HEK293, 20 h. It counts as cell-based.
Assay [2] concerns Caenorhabditis elegans. As to the kind of experiment: Reduction in resistance to H2O2-induced oxidative stress in wild type Caenorhabditis elegans N2 assessed as survival at 250 nM incubated 1 hr prior to H2O2 challenge relative to control. It counts as functional, organism-based.
Assay [3] concerns Caenorhabditis elegans. As to the kind of experiment: Reduction in resistance to H2O2-induced oxidative stress in Caenorhabditis elegans RG1228 harboring daf-9(rh50) mutant assessed as survival at 250 nM incubated 1 hr prior to H2O2 challenge. It counts as functional, organism-based.
Assay [4] concerns Caenorhabditis elegans. Briefly: Activation of DAF-12 receptor in Caenorhabditis elegans RG1228 harboring daf-9(rh50) mutant assessed as mig phenotype rescue at 250 nM after 3 days.

The source made the active and inactive calls. The calls are words filed in the database; no cut-off is given here.

The EC50 is the concentration at which the effect is half-maximal. Read a low EC50 as higher potency in that assay.

Take `C[C@H](CCCCC(=O)O)[C@H]1CC[C@H]2[C@@H]3CCC4=CC(=O)CC[C@]4(C)[C@H]3CC[C@]12C`: the Activity result in the assay on HEK293 was “Dose-dependent effect”. Also, the EC50 in assay [1] turned out to be 10 µM. In addition, the result in the assay with Caenorhabditis elegans [2], with Caenorhabditis elegans [3] and in the assay with Caenorhabditis elegans [4] was Active.
